Source: patent publication US20150011751A1, “NOVEL TRIAZINE DERIVATIVE” (CARNA BIOSCIENCES, INC., priority 2012, published 2015)

How the values were obtained:
[1] = system: intracellular BTK (pY223) in Ramos cells; experiment: Inhibition of self-phosphorylation activity of intracellular BTK in IgM-stimulated Ramos cells (Western blot, Test Example 3-1); type: cell-based; conditions: test compound 1 μM, 1 hour, IgM 10 μg/mL 10 minutes
From the text: Combinations of primary antibody and secondary antibody as well as dilute concentrations used in the present test are as follows.

[2] = system: intracellular BTK (pY223) in Ramos cells; experiment: cells; conditions: Homo sapiens, read-out: BTK phosphorylation inhibitory activity
Procedure: (§1) The supernatant was recovered by a centrifugal operation (at 15,000 rpm for 15 minutes) and the amount of protein was quantitatively determined. The supernatant was mixed with SDS-sample buffer and the mixture was reacted at 95° C. for 5 minutes thereby modifying the protein to obtain a sample solution. […] Thereafter, the protein in the gel was transferred to a PVDF membrane, using an iBlot gel transfer system (Life Technologies Corporation).
(§2) The unreacted secondary antibody was washed with TBST buffer and reacted according to the attached protocol, using ECL Prime Western Blotting Detection System (GE Healthcare Ltd.), and then each band was detected by chemiluminescence using a CCD camera (ATTO, Light-CaptureII). The detected band was digitized by densitometry (ATTO CS Analyzer ver.3.0) and an inhibition ratio was calculated from the intensity of a band in each group on the assumption that luminescence of a band of phosphorylated BTK of the compound no-addition and IgM stimulated group is 100%, whereas, luminescence of a band of phosphorylated BTK of the compound no-addition and IgM non-stimulated group is 0%. Each band of phosphorylated BTK was corrected by the total BTK.
(§3) Thereafter, IgM (Invitrogen, H15100) diluted with the medium was added so that the final concentration becomes 10 μg/mL, followed by incubation at 37° C. for 10 minutes.
(§4) The intracellular BTK autophosphorylation inhibiting activity was indicated with the mark “***” when 70% or more, with the mark “**” when 50% or more and less than 70%, and with the mark “*” when 30% or more and less than 50%.

Dephosphorylated BTK = Dephosphorylated BTK (Homo sapiens, UniProt Q06187); experiment: Test of activity inhibition against dephosphorylated BTK (mobility shift assay)
Procedure: (§5) Kinase activity was measured by a mobility shift assay (MSA) method using QuickScout Screening Assist (trademark) MSA (commercially available kit, manufactured by Carna Biosciences, Inc.). FITC-labeled SRCtide peptide supplied with the kit was used as a substrate of a kinase reaction.
(§6) IC50 value was calculated by regression analysis of the inhibition ratio and the test compound concentration (logarithm).
Dephosphorylated BTK was obtained by adding a A protein phosphatase (Code No. P0753S, manufactured by New England BioLabs Inc.) and MnCl2 to a biotinylated BTK protein BTN-BTK (manufactured by Carna Biosciences, Inc.) enzyme solution so as to adjust the concentrations to 10 U/μg and 2 mM, respectively, reacting the mixture at 4° C. overnight, removing the A protein phosphatase through anti-[sequence]-tag antibody agarose gel chromatography, and performing buffer exchange using 10DG Desalting Column.

BTK = BTK (Homo sapiens, UniProt Q06187); experiment: Test of activity inhibition against BTK (mobility shift assay, QuickScout Screening Assist MSA)
Procedure: as §5
The heights of the respective peaks of the isolated substrate and phosphorylated substrate were designated S and P. Those containing the assay buffer added therein in place of the enzyme solution were measured as a blank.
Inhibition ratio (%) of a test compound was calculated according to the following equation:
where A, B, and C represent P/(P+S) of a blank well, P/(P+S) of a control solution well, and P/(P+S) of a well containing the compound added therein, respectively.
as §6

[3] = system: intracellular BTK (pY223) in Ramos cells; conditions: test compound 0.3 μM, 1 hour, IgM 10 μg/mL 10 minutes
Procedure: as §1, §2, §3, §4

Sequence of BTK (Q06187 whole entry): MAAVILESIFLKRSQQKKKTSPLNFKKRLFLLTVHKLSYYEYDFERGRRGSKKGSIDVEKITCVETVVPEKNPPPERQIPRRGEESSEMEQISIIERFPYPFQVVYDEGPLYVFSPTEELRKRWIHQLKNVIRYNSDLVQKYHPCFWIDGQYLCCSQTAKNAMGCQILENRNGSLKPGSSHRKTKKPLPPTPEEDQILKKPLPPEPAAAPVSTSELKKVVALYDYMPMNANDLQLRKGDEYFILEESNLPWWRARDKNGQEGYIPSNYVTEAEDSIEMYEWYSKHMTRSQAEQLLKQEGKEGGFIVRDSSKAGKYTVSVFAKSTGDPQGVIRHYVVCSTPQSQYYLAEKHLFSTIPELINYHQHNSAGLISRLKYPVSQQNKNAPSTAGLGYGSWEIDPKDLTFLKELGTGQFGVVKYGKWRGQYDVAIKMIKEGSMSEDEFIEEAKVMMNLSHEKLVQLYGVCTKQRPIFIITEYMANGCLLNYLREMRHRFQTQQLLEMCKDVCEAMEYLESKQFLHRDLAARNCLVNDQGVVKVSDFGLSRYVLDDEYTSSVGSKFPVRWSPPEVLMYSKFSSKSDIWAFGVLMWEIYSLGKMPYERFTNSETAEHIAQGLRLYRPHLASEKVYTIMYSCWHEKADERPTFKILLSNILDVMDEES
Sequence of Dephosphorylated BTK (Q06187 whole entry): as above

Row | IC50 (Dephosphorylated BTK) | IC50 (BTK) | Compound | BTK phosphorylation inhibition ratio [1] | inhibition at 0.3 µM [2] | BTK phosphorylation inhibitory activity [3]
1 | 2.1 nM | 10 nM | COc1cc(Nc2ncnc(-c3cccc(NC(=O)c4ccc(C(C)(C)C)cc4)c3C)n2)cc(OC)c1OC [Example 1, 4-(tert-Butyl)-N-(2-methyl-3-[4-[(3,4,5-trimethoxyphenyl)amino]-1,3,5-triazin-2-yl]phenyl)benzamide] | 107% | > 70% | 
2 |  |  | Nc1nc(Nc2ccc(N3CCOCC3)cc2)nc(-c2cccc(N3CCc4cc(C5CC5)cc(F)c4C3=O)c2CO)n1 [Example 44, 2-(3-{4-Amino-6-[(4-morpholinophenyl)amino]-1,3,5-triazin-2-yl}-2-(hydroxymethyl)phenyl)-6-cycropropyl-8-fluoro-3,4-dihydroisoquinolin-1(2H)-one] |  |  | *** (70% or more)
